From patent US11040954B1, “CXCR3 receptor agonists” (RECEPTOS LLC, priority 2016, dated 2021)
pEC50: −log10 of the molar value.

Tests used:
[1] = molecular target: T1, CXCR3 (Homo sapiens, UniProt P49682); test: CXCR3 cAMP agonist assay (cAMP Hunter CHOK1 CXCR3 Gi cell line, forskolin-stimulated, HitHunter cAMP detection); format: cell-based; settings: cAMP Hunter CHOK1 CXCR3 Gi cells, 20 μM forskolin, 30 minutes; read-out: Activity (CXCR3 cAMP agonist assay compound EC50)
T1 construct: host or cells: CHO-K1 (cAMP Hunter CHOK1 CXCR3 Gi cell line)
T1 sequence (P49682 1-368): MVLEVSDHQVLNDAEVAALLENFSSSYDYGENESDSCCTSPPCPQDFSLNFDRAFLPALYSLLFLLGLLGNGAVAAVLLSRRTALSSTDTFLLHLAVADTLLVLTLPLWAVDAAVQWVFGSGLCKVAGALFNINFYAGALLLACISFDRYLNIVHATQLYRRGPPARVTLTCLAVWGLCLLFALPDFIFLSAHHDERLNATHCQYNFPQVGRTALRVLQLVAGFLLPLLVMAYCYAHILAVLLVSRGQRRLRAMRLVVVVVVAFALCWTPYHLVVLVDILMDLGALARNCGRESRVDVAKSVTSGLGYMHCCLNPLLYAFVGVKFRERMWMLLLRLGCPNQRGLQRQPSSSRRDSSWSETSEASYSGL
Method in brief: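 Agonist activity was measured as suppression of forskolin (20 μM)-induced cAMP, read by luminescent enzyme-fragment complementation with a cAMP standard curve and CXCL11 defining full efficacy. Assay used 50,000 CXCR3 Gi CHOK1 cells/well in pH 7.4 HEPES-buffered HBSS with 0.1% BSA, compound 0-10 μM over 12 points, 30 min incubation.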

[2] = Mouse pharmacokinetics after oral gavage, plasma drug concentration by LC-MS/MS (C57BL/6); format: in vivo, C57bl/6 mice; settings: C57BL/6, 60 mg/kg, female mice
Description: Compounds were formulated in 5% DMSO/5% Tween20 in H2O, sonicated, vortexed, and put on stir plate overnight at a dose volume of 10 mL/kg. Balb/C (Jackson laboratories) or C57bl/6 (Taconic Biosciences) mice (8-9 weeks old) were acclimated to the colony for 3 days prior to dosing. Water and food were provided ab libitum. Compounds were administered by oral gavage. Groups of six animals received 3 to 4 bleeds per day with one terminal bleed. The time points were 30 min, 1 h, 2 h, 4 h, 6 h, 8 h, 24 h. Plasma was collected via centrifugation and analyzed for drug concentrations.
Preparation of Study Samples and Standards for Analysis by LC-MS/MS
50 μl of plasma was aliquoted into a 96 well deep-well polypropylene plate (2 mL) to which 5 μL of DMSO was added. For standards, 5 μl of test compound in DMSO at […] the standard concentration was added to 50 μl of blank matrix in a 96 well deep-well polypropylene plate. For example, for a 300 nM standard, the 10× DMSO concentration was 3 μM. Study samples that require dilution are diluted with the appropriate blank matrix. For example, for a 10× dilution, 5 μL of study sample is added to 45 μl of blank matrix. Protein was precipitated from study samples and standards with the addition of 150 μl of acetonitrile. After a clean plate map was placed firmly over the top of the 96-well plate, a bench top shaker was used for 1 min to ensure complete precipitation of protein. The precipitated protein was pelleted by centrifuging for 3,000 rpm for 10 min at 20° C. and then the clear supernatant was transferred to a clean 96-well plate and spun again under the same conditions in order to pellet any solid material that may have been transferred.
Analysis of Study Samples and Standards with LCMS with MRM Detection
An Agilent 1200 HPLC with binary pump and a Leap CTC with fast wash autosampler were used to introduce samples to the mass spectrometer.
The column used was a Phenomenex Luna C8 30×2 mm 5 μm with a security guard. Mass detection was performed by an Applied Biosystems 4000 Qtrap in MRM mode and ionization was achieved by positive electrospray with a source temperature of 500° C. The ion transitions, […] potential and collision energies were dependent on the specific analyte.
Prepared samples were usually analyzed in reverse chronological order with bracketing standard curves. Typically at least 6 standards were used for quantification with a percent accuracy of +/−15% for all standards except at the LLOQ where a percent accuracy of +/−20% was allowed. The concentration time profile was fit using a one compartment model for the applicable mode of dosing using Phoenix WinNonLin 6.4.

Compound: N#Cc1cc2c(cc1NC(=O)[C@H](CCN)NC(=O)[C@@H]1Cc3ccccc3CN1C(=O)CCC(=O)c1ccccc1)CCC2 [Compound 2-57]
- pEC50 [1]: > 7.30
- apparent oral clearance (CL/F) [2]: 393 mL/min/kg
- Cmax ([2]; mouse, plasma): 1500 nM
- AUC(0-t) ([2]; mouse, plasma, read-out: AUC0-24): 4.4 µM·h

Compound: Cc1cc(NC(=O)[C@H](CC[N+](C)(C)C)NC(=O)[C@@H]2Cc3ccccc3CN2C(=O)CCC(=O)c2ccccc2)ccc1Cl [Compound 6-7]
- pEC50 [1]: 6.60 to 7.30

Compound: CC(C)(O)C1CCCCN1C(=O)CCC(=O)N1Cc2ccccc2C[C@H]1C(=O)N[C@@H](CCN)C(=O)Nc1ccc(Cl)c(Cl)c1F (stereo partly drawn) [Compound 15-55]
- pEC50 [1]: > 7.30

Compound: NCCCC[C@H](NC(=O)[C@@H]1Cc2ccccc2CN1C(=O)CCC(=O)c1ccccc1)C(=O)Nc1cc(Cl)cc(Cl)c1 [Compound 1-17]
- pEC50 [1]: 6.60 to 7.30

Compound: NCC[C@H](NC(=O)[C@@H]1Cc2ccccc2CN1C(=O)CCC(=O)c1ccccc1)C(=O)Nc1cc(Cl)c(Cl)c(Cl)c1 [Compound 14-4]
- pEC50 [1]: > 7.30

Compound: Cc1cc(NC(=O)[C@H](CCN)NC(=O)[C@@H]2Cc3ccccc3CN2C(=O)CCC(=O)N2CC(Cc3ccccc3)C2)ccc1Cl [Compound 12-38]
- pEC50 [1]: 6.30 to 6.60

Compound: O=C(CCC(=O)N1Cc2ccccc2CC1C(=O)NC(CCN1CCC(F)CC1)C(=O)Nc1ccc2c(c1)CCC2)c1ccccc1 (racemic) [Compound 23-1, N-(1-((2,3-dihydro-1H-inden-5-yl)amino)-4-(4-fluoropiperidin-1-yl)-1-oxobutan-2-yl)-2-(4-oxo-4-phenylbutanoyl)-1,2,3,4-tetrahydroisoquinoline-3-carboxamide]
- pEC50 [1]: < 6.30

Compound: CC1(C)CCCCN1C(=O)CCC(=O)N1Cc2ccccc2C[C@H]1C(=O)N[C@@H](CCN1CCC(O)CC1)C(=O)Nc1ccc(Cl)c(Cl)c1F [Compound 26-1, (S)—N—((S)-1-((3,4-dichloro-2-fluorophenyl)amino)-4-(4-hydroxypiperidin-1-yl)-1-oxobutan-2-yl)-2-(4-(2,2-dimethylpiperidin-1-yl)-4-oxobutanoyl)-1,2,3,4-tetrahydroisoquinoline-3-carboxamide]
- pEC50 [1]: > 7.30

Compound: COc1cc(C)ccc1NC(=O)[C@H](CCN)NC(=O)[C@@H]1Cc2ccccc2CN1C(=O)CCC(=O)c1ccccc1 [Compound 1-37]
- pEC50 [1]: 6.60 to 7.30

Compound: Cc1cc(NC(=O)[C@H](CCN)NC(=O)[C@@H]2Cc3ccccc3CN2C(=O)CCC(=O)N2CCN(C(C)(C)C)CC2)ccc1Cl [Compound 12-102]
- pEC50 [1]: 6.60 to 7.30

Compound: NCCCC[C@H](NC(=O)[C@@H]1Cc2ccccc2CN1C(=O)CCC(=O)c1ccccc1)C(=O)Nc1ccc(C(F)(F)F)c(Cl)c1 [Compound 1-22]
- pEC50 [1]: 6.30 to 6.60

Compound: COc1c(C)cccc1NC(=O)[C@H](CCN)NC(=O)[C@@H]1Cc2ccccc2CN1C(=O)CCC(=O)c1ccccc1 [Compound 2-51]
- pEC50 [1]: 6.60 to 7.30

Compound: Cc1cccc(NC(=O)[C@H](CCN)NC(=O)[C@@H]2Cc3ccccc3CN2C(=O)CCC(=O)c2ccccc2)c1C#N [Compound 14-19]
- pEC50 [1]: 6.60 to 7.30

Compound: Cc1cc(NC(=O)[C@H](CCCCN)NC(=O)[C@@H]2Cc3ccccc3CN2C(=O)CCC(=O)c2ccccc2)ccc1Cl (stereo in doubt) [Compound 4-2, (S)—N—((S)-6-amino-1-((4-chloro-3-methylphenyl)amino)-1-oxohexan-2-yl)-2-(4-oxo-4-phenylbutanoyl)-1,2,3,4-tetrahydroisoquinoline-3-carboxamide]
- pEC50 [1]: 6.30 to 6.60

Compound: Cc1cc(Cl)ccc1NC(=O)[C@H](CCN)NC(=O)[C@@H]1Cc2ccccc2CN1C(=O)CCC(=O)c1ccccc1 [Compound 2-10]
- pEC50 [1]: 6.30 to 6.60

Compound: CN(C)CCCC[C@H](NC(=O)[C@@H]1Cc2ccccc2CN1C(=O)CCC(=O)c1ccccc1)C(=O)Nc1ccc(Cl)c(Cl)c1 [Compound 1-31]
- pEC50 [1]: 6.30 to 6.60

Compound: NCC[C@H](NC(=O)[C@@H]1Cc2ccccc2CN1C(=O)CCC(=O)c1ccccc1)C(=O)Nc1cc(Cl)c(Cl)cc1C(F)(F)F [Compound 14-2]
- pEC50 [1]: > 7.30

Compound: Cc1cc(NC(=O)[C@H](CCN)NC(=O)[C@@H]2Cc3ccccc3CN2C(=O)CCC(=O)N2CCN(C)C2)ccc1Cl [Compound 12-145]
- pEC50 [1]: > 7.30

Compound: Cc1cc(NC(=O)[C@H](CCN)NC(=O)[C@@H]2Cc3ccccc3CN2C(=O)CCC(=O)N2CC[C@H](C)C2)ccc1Cl [Compound 12-123]
- pEC50 [1]: > 7.30

Compound: Cc1cc(NC(=O)[C@H](CCN)NC(=O)[C@@H]2Cc3ccccc3CN2C(=O)CCC(=O)N2CC(C)C(C)C2)ccc1Cl (stereo partly drawn) [Compound 12-68]
- pEC50 [1]: > 7.30

Compound: NCC[C@H](NC(=O)[C@@H]1Cc2ccccc2CN1C(=O)CCC(=O)c1ccccc1)C(=O)Nc1cccc(-c2ccccc2)c1 [Compound 2-29]
- pEC50 [1]: 6.30 to 6.60

Compound: Cc1cc(NC(=O)[C@H](CCN)NC(=O)[C@@H]2Cc3ccccc3CN2C(=O)CCC(=O)N2CCC(O)CC2)ccc1Cl [Compound 12-6]
- pEC50 [1]: 6.60 to 7.30

Compound: NCC[C@H](NC(=O)[C@@H]1Cc2ccccc2CN1C(=O)CCC(=O)c1ccccc1)C(=O)Nc1ccc2ncsc2c1 [Compound 2-65]
- pEC50 [1]: 6.60 to 7.30

Compound: NCC[C@H](NC(=O)[C@@H]1Cc2ccccc2CN1C(=O)CCC(=O)N1CC2CCCCC2C1)C(=O)Nc1ccc(Cl)c(Cl)c1F (stereo partly drawn) [Compound 15-54]
- pEC50 [1]: > 7.30

Compound: COc1cc(C)c(Cl)cc1NC(=O)[C@H](CCN)NC(=O)[C@@H]1Cc2ccccc2CN1C(=O)CCC(=O)c1ccccc1 [Compound 1-36]
- pEC50 [1]: > 7.30

Compound: CC1(C)CCCCN1C(=O)CCC(=O)N1Cc2ccccc2C[C@H]1C(=O)NC(CC12CC(N)(C1)C2)C(=O)Nc1ccc(Cl)c(Cl)c1F (stereo partly drawn) [Compound 33-1, (3S)—N-(3-(3-aminobicyclo[1.1.1]pentan-1-yl)-1-((3,4-dichloro-2-fluorophenyl)amino)-1-oxopropan-2-yl)-2-(4-(2,2-dimethylpiperidin-1-yl)-4-oxobutanoyl)-1,2,3,4-tetrahydroisoquinoline-3-carboxamide]
- pEC50 [1]: > 7.30

Compound: CN(CC(C)(C)C)C(=O)CCC(=O)N1Cc2ccccc2C[C@H]1C(=O)NC1(C(=O)Nc2ccc(Cl)c(Cl)c2F)CCNCC1 [Compound 12-137]
- pEC50 [1]: 6.60 to 7.30

Compound: Cc1cc(NC(=O)[C@H](CCN)NC(=O)[C@@H]2Cc3ccccc3CN2C(=O)CCC(=O)NC2(C(F)(F)F)CC2)ccc1Cl [Compound 12-85]
- pEC50 [1]: < 6.30

Compound: Cc1cc(NC(=O)[C@H](CCN2CCCC2)NC(=O)[C@@H]2Cc3ccccc3CN2C(=O)CCC(=O)c2ccccc2)ccc1Cl [Compound 3-8]
- pEC50 [1]: > 7.30

Compound: Cc1cc(NC(=O)[C@H](Cc2cncn2C)NC(=O)[C@@H]2Cc3ccccc3CN2C(=O)CCC(=O)c2ccccc2)ccc1Cl [Compound 5-2]
- pEC50 [1]: 6.60 to 7.30

Compound: Cc1cc(NC(=O)[C@H](CCN)NC(=O)[C@@H]2Cc3ccccc3CN2C(=O)CCC(=O)N2CC[C@@H](C)C2)ccc1Cl [Compound 12-122]
- pEC50 [1]: > 7.30

Compound: CCC(C)(C)NC(=O)CCC(=O)N1Cc2ccccc2C[C@H]1C(=O)N[C@@H](CCN)C(=O)Nc1ccc(Cl)c(C)c1 [Compound 12-92]
- pEC50 [1]: 6.60 to 7.30

Compound: Cc1cc(NC(=O)[C@H](CCN)NC(=O)[C@@H]2Cc3ccccc3CN2C(=O)CCC(=O)NCCC(C)C)ccc1Cl [Compound 12-80]
- pEC50 [1]: > 7.30

Compound: O=C(CCC(=O)N1Cc2ccccc2C[C@H]1C(=O)N[C@@H](CCN1CCCC(F)(F)C1)C(=O)Nc1ccc2c(c1)CCC2)c1ccccc1 [Compound 23-8]
- pEC50 [1]: 6.30 to 6.60

Compound: Cc1cc(NC(=O)[C@H](CCN)NC(=O)[C@@H]2Cc3ccccc3CN2C(=O)CCC(=O)N2CCN(c3ncccn3)CC2)ccc1Cl [Compound 12-107]
- pEC50 [1]: 6.60 to 7.30

Compound: CO[C@@H]1CCCN(C(=O)CCC(=O)N2Cc3ccccc3C[C@H]2C(=O)N[C@@H](CCN)C(=O)Nc2ccc(Cl)c(Cl)c2F)C1 [Compound 15-27]
- pEC50 [1]: > 7.30
